Data from article PMC9837035 (Nature Communications, 2023).
Several values for one entry are separate records, joined by “and”; a condition that tells them apart may be missing. Equal entries are not always repeated.

Key:
[1] = tested on: BCL11A- or ZBTB7A-knockout HUDEP-2 cells; assay: RT-qPCR of BGLT3, β- and γ-globin in BCL11A- or ZBTB7A-knockout HUDEP-2 cells; type: cell-based, human
Protocol: (§1) Total cellular RNA was prepared using the Tissue Total RNA Mini Kit (FAVORGEN), and cDNA was synthesized using ReverTra Ace Master Mix (TOYOBO). Expression of target genes was analyzed using THUNDERBIRD SYBR qPCR Mix (TOYOBO) on a CFX Connect Real Time System (Bio-Rad). The qPCR data were acquired on CFX Maestro (Bio-Rad). Primers are listed in Supplementary Table 10. GAPDH was used as a reference. Primers were purchased from INTEGRATED DNA TECHNOLOGIES or FASMAC.

[2] = tested on: BGLT3 RNA in CD34+ cells; assay: RT-qPCR of BGLT3 in CD34+ cells; type: cell-based, human; settings: for BGLT3 expression in CD34+ cells treated with hydroxyurea: relative to DMSO = 1, replicate values; for BGLT3 expression: primary human CD34+ cells
Protocol: HUDEP-2 cells and HiDEP-1 cells were grown in Stemline II Hematopoietic Stem Cell Expansion Medium (Sigma) supplemented with 50 ng/mL recombinant stem cell factor (SCF; R&D systems), 3 IU/mL recombinant erythropoietin (EPO; Kyowa Kirin), 1 μM dexamethasone (Dex; Sigma), and 1 μg/mL doxycycline (Sigma). A total of 1 × 10^5 human CD34^+ progenitor cells derived from bone marrow or peripheral blood (Lonza) were cultured on 35-mm dishes (BD Falcon) in StemSpan SFEMII medium with 50 ng/mL SCF, 5 IU/mL EPO, and 10 ng /mL interleukin 3 (IL-3; R&D systems). The medium was changed on day 4 to SCF, EPO, and 1 μM Dex, and the cells were transferred to 60-mm dishes (BD Falcon). Seven days after the onset of differentiation, cells were counted and 1 × 10^6 cells were re-plated on 100-mm dishes (BD Falcon) with SCF, EPO, and Dex. The rat myoblast cell line H9c2, HEK293T, and PLAT-E cells were maintained in Dulbecco’s modified Eagle’s medium (Thermo Fisher Scientific) supplemented with 10% heat-inactivated fetal bovine serum (FBS) and penicillin/streptomycin. All cells were cultured at 37 °C under 5% CO2.
as §1

[3] = tested on: HbF in CD34+-derived cells; assay: Flow cytometry of HbF-expressing CD34+-derived cells; type: cell-based, human
Protocol: For the analysis of HbF expression, HUDEP-2 cells or cells differentiated from human CD34 + progenitor cells were fixed in 0.05% glutaraldehyde for 10 min, then washed two times with PBS containing 2% FBS (PBS/2% FBS) and permeabilized with 0.1% Triton X-100 (prepared in PBS/2% FBS; Life Technologies) for 5 min. After washing with PBS/2% FBS two times, cells were stained with allophycocyanin (APC)-conjugated HbF antibody (1:1, Invitrogen, MHFH05). One million cells were incubated with the HbF–APC antibody for 30 min in the dark at 4 °C. Cells were washed twice with PBS/2% FBS, then suspended in 0.2 ml PBS/2% FBS and analyzed using a FACSCalibur (Becton Dickinson). To assess erythroid differentiation, hematopoietic cells differentiated from human CD34 cells were stained with FITC-conjugated CD45 antibody (1:1, Becton Dickinson, 555482) and APC-conjugated glycophorin A antibody (1:20, Becton Dickinson, 551336). Stained cells were suspended in 0.2 ml PBS/2% FBS containing 1 μg/ml propidium iodide (Sigma) and analyzed by FACSCalibur. The results of flow cytometer were further analyzed by FlowJo software (Becton Dickinson).

[4] = target: T1, SUV39H2 (Homo sapiens, UniProt Q9H5I1); assay: Radioisotope-based methyltransferase assay (selectivity); type: biochemical
T1 construct: purchased Reaction Biology

[5] = target: T2, DNMT3b/3L (Homo sapiens, UniProt Q9UBC3); assay: as above; type: biochemical
T2 construct: purchased Reaction Biology

[6] = target: T3, SMYD1 (Homo sapiens, UniProt Q8NB12); assay: as above; type: biochemical
T3 construct: purchased Reaction Biology
T3 sequence (Q8NB12 1-490): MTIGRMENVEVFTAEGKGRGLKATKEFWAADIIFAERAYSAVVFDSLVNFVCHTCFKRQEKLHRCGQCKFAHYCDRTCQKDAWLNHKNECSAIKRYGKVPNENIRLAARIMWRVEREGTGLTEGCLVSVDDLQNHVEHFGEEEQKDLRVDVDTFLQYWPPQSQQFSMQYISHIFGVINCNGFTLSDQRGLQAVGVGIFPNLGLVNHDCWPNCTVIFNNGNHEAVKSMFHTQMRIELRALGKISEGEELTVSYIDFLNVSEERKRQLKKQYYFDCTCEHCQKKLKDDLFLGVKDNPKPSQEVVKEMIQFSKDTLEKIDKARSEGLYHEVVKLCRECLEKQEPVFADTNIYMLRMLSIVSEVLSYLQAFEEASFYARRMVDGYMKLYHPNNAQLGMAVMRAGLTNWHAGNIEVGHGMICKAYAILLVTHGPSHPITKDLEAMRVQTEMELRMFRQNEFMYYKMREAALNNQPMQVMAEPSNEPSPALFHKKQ

[7] = target: T4, NSD1 (Homo sapiens, UniProt Q96L73); assay: as above; type: biochemical
T4 construct: purchased Reaction Biology

[8] = BCL11AKO, relative to Parental DMSO = 1, replicate values
[9] = ZBTB7AKO, relative to Parental DMSO = 1, replicate values

T4 sequence (Q96L73 whole entry): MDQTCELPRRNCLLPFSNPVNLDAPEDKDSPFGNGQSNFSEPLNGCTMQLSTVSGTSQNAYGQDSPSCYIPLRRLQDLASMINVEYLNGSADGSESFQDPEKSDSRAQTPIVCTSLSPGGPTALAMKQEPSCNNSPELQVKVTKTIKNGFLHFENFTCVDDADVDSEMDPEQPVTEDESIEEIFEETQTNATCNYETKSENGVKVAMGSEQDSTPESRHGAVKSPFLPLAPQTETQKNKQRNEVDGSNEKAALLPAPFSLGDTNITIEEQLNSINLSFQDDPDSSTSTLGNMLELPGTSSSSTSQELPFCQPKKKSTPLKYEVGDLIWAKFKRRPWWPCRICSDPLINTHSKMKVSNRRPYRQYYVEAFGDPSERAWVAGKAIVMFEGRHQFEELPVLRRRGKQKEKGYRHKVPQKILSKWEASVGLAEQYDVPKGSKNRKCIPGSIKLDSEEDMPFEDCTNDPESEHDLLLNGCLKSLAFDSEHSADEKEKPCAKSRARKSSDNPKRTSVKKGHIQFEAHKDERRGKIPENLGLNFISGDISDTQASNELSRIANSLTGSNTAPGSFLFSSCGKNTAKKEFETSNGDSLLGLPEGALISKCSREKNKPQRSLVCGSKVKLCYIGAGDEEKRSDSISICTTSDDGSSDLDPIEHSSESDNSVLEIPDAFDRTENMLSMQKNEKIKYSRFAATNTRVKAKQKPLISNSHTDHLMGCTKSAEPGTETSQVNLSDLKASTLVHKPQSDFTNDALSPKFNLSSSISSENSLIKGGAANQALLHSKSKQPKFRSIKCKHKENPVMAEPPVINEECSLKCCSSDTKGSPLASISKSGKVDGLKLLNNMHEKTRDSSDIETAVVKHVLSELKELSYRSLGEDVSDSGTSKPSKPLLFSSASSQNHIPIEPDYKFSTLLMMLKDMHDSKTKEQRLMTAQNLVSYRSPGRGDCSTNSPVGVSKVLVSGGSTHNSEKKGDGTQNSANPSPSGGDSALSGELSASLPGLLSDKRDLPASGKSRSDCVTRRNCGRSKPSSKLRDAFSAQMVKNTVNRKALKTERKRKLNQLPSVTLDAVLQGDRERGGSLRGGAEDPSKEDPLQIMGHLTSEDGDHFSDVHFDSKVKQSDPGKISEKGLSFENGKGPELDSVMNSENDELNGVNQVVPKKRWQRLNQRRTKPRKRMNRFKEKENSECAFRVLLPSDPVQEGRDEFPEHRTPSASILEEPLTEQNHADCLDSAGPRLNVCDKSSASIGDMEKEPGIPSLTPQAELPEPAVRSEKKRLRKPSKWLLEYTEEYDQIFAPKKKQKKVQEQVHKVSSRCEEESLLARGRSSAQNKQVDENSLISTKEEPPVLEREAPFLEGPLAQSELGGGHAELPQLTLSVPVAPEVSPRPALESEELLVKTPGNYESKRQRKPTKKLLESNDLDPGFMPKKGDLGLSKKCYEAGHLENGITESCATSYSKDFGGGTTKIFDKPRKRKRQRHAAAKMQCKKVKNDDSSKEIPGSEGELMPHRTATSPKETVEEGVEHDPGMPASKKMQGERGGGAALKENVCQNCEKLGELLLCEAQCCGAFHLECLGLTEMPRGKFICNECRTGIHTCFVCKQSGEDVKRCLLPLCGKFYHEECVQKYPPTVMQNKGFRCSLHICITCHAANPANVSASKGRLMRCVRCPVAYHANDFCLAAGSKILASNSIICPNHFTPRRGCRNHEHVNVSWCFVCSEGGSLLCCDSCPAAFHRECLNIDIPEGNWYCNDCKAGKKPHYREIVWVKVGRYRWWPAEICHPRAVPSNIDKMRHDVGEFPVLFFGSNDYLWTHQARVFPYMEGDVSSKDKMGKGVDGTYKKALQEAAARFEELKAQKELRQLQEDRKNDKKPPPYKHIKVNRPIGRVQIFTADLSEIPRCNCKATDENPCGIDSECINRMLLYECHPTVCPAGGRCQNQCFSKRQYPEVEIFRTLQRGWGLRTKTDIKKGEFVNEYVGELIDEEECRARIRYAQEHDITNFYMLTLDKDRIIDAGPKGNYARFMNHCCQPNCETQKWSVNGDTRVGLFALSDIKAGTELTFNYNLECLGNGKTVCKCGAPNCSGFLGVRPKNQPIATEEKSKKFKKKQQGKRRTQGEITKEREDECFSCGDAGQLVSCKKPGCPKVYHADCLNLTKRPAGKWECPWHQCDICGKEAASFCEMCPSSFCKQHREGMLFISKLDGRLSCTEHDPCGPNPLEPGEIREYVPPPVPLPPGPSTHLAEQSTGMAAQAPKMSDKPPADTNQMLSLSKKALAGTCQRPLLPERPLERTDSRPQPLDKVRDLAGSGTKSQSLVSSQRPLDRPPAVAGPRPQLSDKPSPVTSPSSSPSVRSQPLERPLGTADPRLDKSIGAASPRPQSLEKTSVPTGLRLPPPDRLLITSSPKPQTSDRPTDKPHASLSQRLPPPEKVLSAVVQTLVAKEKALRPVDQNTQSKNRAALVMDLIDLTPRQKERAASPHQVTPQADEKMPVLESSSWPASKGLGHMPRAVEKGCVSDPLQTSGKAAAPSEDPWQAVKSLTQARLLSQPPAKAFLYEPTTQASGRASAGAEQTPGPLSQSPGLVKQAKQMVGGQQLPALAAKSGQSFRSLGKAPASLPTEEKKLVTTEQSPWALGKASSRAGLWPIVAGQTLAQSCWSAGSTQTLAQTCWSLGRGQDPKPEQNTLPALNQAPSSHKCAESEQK
T1 sequence (Q9H5I1 whole entry): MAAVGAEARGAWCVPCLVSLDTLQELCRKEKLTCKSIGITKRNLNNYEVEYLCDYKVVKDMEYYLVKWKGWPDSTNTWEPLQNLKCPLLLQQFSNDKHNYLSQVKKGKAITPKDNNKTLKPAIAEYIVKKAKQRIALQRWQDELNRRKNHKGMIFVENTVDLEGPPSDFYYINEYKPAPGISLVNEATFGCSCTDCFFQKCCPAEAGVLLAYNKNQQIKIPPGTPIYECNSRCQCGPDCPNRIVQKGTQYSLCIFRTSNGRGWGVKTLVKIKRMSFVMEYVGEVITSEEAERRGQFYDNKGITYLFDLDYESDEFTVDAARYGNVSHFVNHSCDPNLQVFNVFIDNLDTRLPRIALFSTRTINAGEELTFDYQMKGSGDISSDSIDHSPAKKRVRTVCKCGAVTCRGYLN

With NC(=O)NO [Hydroxyurea, hydroxyurea] the “β-globin in hydroxyurea-treated BCL11A-knockout HUDEP-2 cells” value [1, 8] was 0.8331 and 0.6286 and 0.8387, the “γ-globin in hydroxyurea-treated BCL11A-knockout HUDEP-2 cells” value [1, 8] was 30.3873 and 19.1624 and 29.0192 and the BGLT3 expression ([1]; Left panel, BCL11AKO HUDEP-2 cells treated with hydroxyurea, Parental DMSO = 1, 3 replicates) was 4.086 and 4.522 and 3.744. The BGLT3 expression ([1]; Left panel, ZBTB7AKO HUDEP-2 cells treated with hydroxyurea, Parental DMSO = 1, 3 replicates) was 7.409 and 8.146 and 6.041, the BGLT3 expression ([1]; Right panel, BCL11AKO HUDEP-2 cells treated with hydroxyurea, DMSO of the same cells = 1, 3 replicates) was 0.9046 and 1.002 and 0.9124 and the BGLT3 expression ([1]; Right panel, ZBTB7AKO HUDEP-2 cells treated with hydroxyurea, DMSO of the same cells = 1, 3 replicates) was 1.218 and 1.432 and 1.28. For the same compound, the “β-globin in hydroxyurea-treated ZBTB7A-knockout HUDEP-2 cells” value [1, 9] was 0.1643 and 0.09952 and 0.1527, the “γ-globin in hydroxyurea-treated ZBTB7A-knockout HUDEP-2 cells” value [1, 9] was 16.1366 and 9.002 and 13.1897 and the “BGLT3 expression in CD34+ cells treated with hydroxyurea” value (“BGLT3 expression in CD34+ cells treated” below) ([2]; DAY7, 10 μM) was 1.048 and 1.203 and 1.026. The “BGLT3 expression in CD34+ cells treated” value ([2]; DAY7, 50 μM) was 1.743 and 1.82 and 2.054, the “BGLT3 expression in CD34+ cells treated” value ([2]; DAY9, 10 μM) was 1.52 and 1.518 and 1.0769 and the “BGLT3 expression in CD34+ cells treated” value ([2]; DAY9, 50 μM) was 2.568 and 2.893 and 2.233. The BGLT3 expression [2] was “promoted BGLT3 expression”, the “HbF induction compared with RK-701” value [3] was “less effective in inducing HbF than RK-701” and the “Percentage of HbF-expressing cells” value ([3]; day 11, 10 μM, listed as HU) was 32.8% and 45.2% and 37.4%. For the same compound, the “Percentage of HbF-expressing cells” value ([3]; day 11, 50 μM, listed as HU) was 63% and 65.2% and 61.5%.

Cc1c(C(=O)NC(CCC2CC2)C(=O)Nc2ccc(C#N)cc2)[nH]c2c1C(=O)CC(C)(C)C2 (stereo not shown) [RK-701] was tested, and the BGLT3 expression ([1]; BCL11A KO HUDEP-2 cells treated with RK-701, parental DMSO = 1, replicates 1a-3b) was 6.941 and 5.75 and 6.485 and 4.87 and 5.182 and 3.691, the BGLT3 expression ([1]; BCL11A knockout HUDEP-2) was “could no longer increase BGLT3 expression” and the BGLT3 expression ([1]; ZBTB7A KO HUDEP-2 cells treated with RK-701, parental DMSO = 1, replicates 1a-3b) was 4.7282 and 5.8001 and 5.631 and 4.239 and 5.932 and 4.543. For the same compound, the BGLT3 expression ([1]; ZBTB7A knockout HUDEP-2) was “prevented RK-701 from increasing BGLT3 expression”, the BGLT3 expression [2] was “induced BGLT3 expression” and the IC50 ([4]; SUV39H2, 1 μM SAM) was greater than 100 µM. It also gave an IC50 ([4]; SUV39H2, RK-701 in duplicate) greater than 100 µM, an IC50 ([5]; 1 μM SAM) greater than 100 µM and an IC50 ([5]; RK-701 in duplicate) greater than 100 µM. The “Percentage of HbF-expressing cells” value ([3]; day 11, 0.01 μM) was 22.7% and 27% and 19%, the “Percentage of HbF-expressing cells” value ([3]; day 11, 0.03 μM) was 41.2% and 51.3% and 42.4% and the “Percentage of HbF-expressing cells” value ([3]; day 11, 0.1 μM) was 71.3% and 76.8% and 67.7%. For the same compound, the “Percentage of HbF-expressing cells” value ([3]; day 11, 0.3 μM) was 83.5% and 83.7% and 81.1%, the “Percentage of HbF-expressing cells” value ([3]; day 11, 1 μM) was 84.2% and 87.4% and 83.5% and the “Percentage of HbF-expressing cells” value ([3]; day 11, 3 μM) was 84.8% (2×) and 85.2%. For the same compound, the IC50 ([6]; SMYD1, 1 μM SAM) was 52.7 µM, the IC50 ([6]; SMYD1, RK-701 in duplicate) was 45 µM and 60.5 µM and the IC50 ([7]; NSD1, 1 μM SAM) was greater than 100 µM. For the same compound, the IC50 ([7]; NSD1, RK-701 in duplicate) was greater than 100 µM.

Nc1ncnc2c1ncn2[C@@H]1O[C@H](CSCC[C@H](N)C(=O)O)[C@@H](O)[C@H]1O [SAH, S-(5'-Adenosyl)-L-homocysteine, reference compound] showed an IC50 ([4]; SUV39H2, 1 μM SAM) of 20.2 µM, an IC50 ([4]; SUV39H2, RK-701 in duplicate) of 20.2 µM and an IC50 ([5]; 1 μM SAM) of 0.05 µM. The IC50 ([5]; RK-701 in duplicate) was 0.0542 µM, the IC50 ([6]; SMYD1, 1 μM SAM) was 47.4 µM and the IC50 ([6]; SMYD1, RK-701 in duplicate) was 47.4 µM. For the same compound, the IC50 ([7]; NSD1, 1 μM SAM) was 56.6 µM and the IC50 ([7]; NSD1, RK-701 in duplicate) was 56.6 µM.
